Data from the supplement of paper PMC10307832.

Columns and labels:
Assay in all cases: relative viability (nuclei count vs DMSO), 5 days (fraction); higher = more cells survive
Irinotecan + Pictilisib = compound: CCc1c2c(nc3ccc(OC(=O)N4CCC(N5CCCCC5)CC4)cc13)-c1cc3c(c(=O)n1C2)COC(=O)[C@]3(O)CC [Irinotecan] + CS(=O)(=O)N1CCN(Cc2cc3nc(-c4cccc5[nH]ncc45)nc(N4CCOCC4)c3s2)CC1 [Pictilisib] (partner 1 µM)
In short: (§1)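 Dosing by pin tool came one day after lung cancer cell lines were seeded in 1536-well plates, using either one drug or a fixed anchor-drug dose plus five library-drug doses (not always all listed) in √10 steps. After 5 days, nuclei were counted on 4× images. Relative viability is treated-well nuclei count divided by vehicle-well nuclei count, and values are medians of duplicate plates.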

RU-SKI 43 + Decitabine = compound: CC[C@@H](C)CNCC(=O)N1CCC2=C([C@@H]1COC3=CC=CC(=C3)C)C=CS2 [RU-SKI 43] + Nc1ncn([C@H]2C[C@H](O)[C@@H](CO)O2)c(=O)n1 [Decitabine] (partner 2 µM)
In short: as §1

MK-8033 + Pictilisib = compound: Cn1cc(-c2cnc3ccc4ccc(CS(=O)(=O)NCc5ccccn5)cc4c(=O)c3c2)cn1 [MK-8033] + CS(=O)(=O)N1CCN(Cc2cc3nc(-c4cccc5[nH]ncc45)nc(N4CCOCC4)c3s2)CC1 [Pictilisib] (partner 1 µM)
In short: as §1

RU-SKI 43 + Pictilisib = compound: CC[C@@H](C)CNCC(=O)N1CCC2=C([C@@H]1COC3=CC=CC(=C3)C)C=CS2 [RU-SKI 43] + CS(=O)(=O)N1CCN(Cc2cc3nc(-c4cccc5[nH]ncc45)nc(N4CCOCC4)c3s2)CC1 [Pictilisib] (partner 1 µM)
In short: as §1

Cell Line	relative viability (Irinotecan + Pictilisib; first compound 0.6325 µM)	relative viability (Irinotecan + Pictilisib; first compound 2 µM)	relative viability (Irinotecan + Pictilisib; first compound 6.325 µM)	relative viability (Irinotecan + Pictilisib; first compound 20 µM)	relative viability (RU-SKI 43 + Decitabine; first compound 0.1 µM)	relative viability (RU-SKI 43 + Decitabine; first compound 0.3162 µM)	relative viability (RU-SKI 43 + Decitabine; first compound 1 µM)	relative viability (RU-SKI 43 + Decitabine; first compound 3.162 µM)	relative viability (RU-SKI 43 + Decitabine; first compound 10 µM)	relative viability (MK-8033 + Pictilisib; first compound 0.02 µM)	relative viability (MK-8033 + Pictilisib; first compound 0.06325 µM)	relative viability (MK-8033 + Pictilisib; first compound 0.2 µM)	relative viability (MK-8033 + Pictilisib; first compound 0.6325 µM)	relative viability (MK-8033 + Pictilisib; first compound 2 µM)	relative viability (RU-SKI 43 + Pictilisib; first compound 0.1 µM)	relative viability (RU-SKI 43 + Pictilisib; first compound 0.3162 µM)	relative viability (RU-SKI 43 + Pictilisib; first compound 1 µM)	relative viability (RU-SKI 43 + Pictilisib; first compound 3.162 µM)	relative viability (RU-SKI 43 + Pictilisib; first compound 10 µM)
SK-MES-1	0.336	0.319	0.254	0.257	0.313	0.385	0.391	0.403	0.389	0.334	0.301	0.328	0.405	0.349	0.34	0.332	0.366	0.444	0.336
HOP-62	0.239	0.261	0.13	0.269	0.231	0.179	0.248	0.202	0.209	0.626	0.593	0.587	0.694	0.646	0.767	0.69	0.834	0.769	0.611
NCI-H520	0.225	0.324	0.201	0.152	0.502	0.564	0.568	0.589	0.501	0.28	0.221	0.295	0.283	0.323	0.279	0.326	0.385	0.456	0.306
EBC-1	0.29	0.301	0.315	0.131	–	–	–	–	–	0.354	0.314	0.222	0.195	0.144	0.345	0.283	0.429	0.316	0.196
BEN	0.508	0.461	0.253	0.349	0.806	0.692	0.812	0.729	0.78	0.583	0.454	0.499	0.594	0.541	0.642	0.546	0.791	0.528	0.584
NCI-H322M	0.532	0.507	0.344	0.338	0.631	0.673	0.717	0.689	0.65	0.511	0.438	0.496	0.464	0.523	0.586	0.469	0.559	0.51	0.482
LU99A	0.206	0.211	0.206	0.235	0.746	1.1	1.05	0.91	0.711	0.331	0.275	0.318	0.29	0.32	0.312	0.304	0.321	0.333	0.292
NCI-H2405	–	0.477	0.326	0.132	0.704	0.778	0.681	0.808	0.688	0.502	0.445	0.404	0.434	0.593	0.393	0.34	0.436	0.472	0.333
NCI-H1395	–	0.539	0.471	0.35	0.661	0.858	0.776	0.714	0.696	0.726	0.579	0.683	0.606	0.628	0.607	0.574	0.668	0.58	0.542
HCC-44	0.657	0.438	0.221	0.404	0.98	0.911	0.922	0.977	0.953	0.623	0.409	0.542	0.69	0.738	0.668	0.504	0.77	0.675	0.566
NCI-H441	0.434	0.314	0.216	0.32	0.212	0.238	0.228	0.229	0.223	0.45	0.446	0.416	0.446	0.444	0.466	0.491	0.47	0.609	0.468
Calu-6	0.573	0.417	0.219	0.0958	–	–	–	–	–	0.947	0.766	0.899	0.85	0.975	0.918	1.14	0.977	0.912	0.722
CAL-12T	0.4	0.396	0.443	0.327	–	–	–	–	–	0.515	0.323	0.339	0.436	0.388	0.772	0.334	0.624	0.397	0.461
HCC-78	0.276	0.172	0.149	0.158	0.676	0.602	0.781	0.667	0.639	0.237	0.152	0.253	–	0.245	0.24	0.232	0.278	0.176	0.191
NCI-H2170	0.32	0.242	0.224	0.157	0.439	0.514	0.438	0.426	0.49	0.382	0.291	0.293	0.32	0.302	0.293	0.256	0.334	0.282	0.278
NCI-H23	0.397	0.442	0.256	0.258	0.309	0.319	0.326	0.291	0.335	0.377	0.397	0.378	0.561	0.384	0.441	0.497	0.536	0.492	0.468
COR-L 105	0.309	0.515	0.411	0.231	0.625	0.674	0.703	0.629	0.625	0.413	0.357	0.366	0.424	0.403	0.436	0.361	0.377	0.379	0.364

Cell Line	relative viability (Irinotecan + Pictilisib; first compound 0.6325 µM)	relative viability (Irinotecan + Pictilisib; first compound 2 µM)	relative viability (Irinotecan + Pictilisib; first compound 6.325 µM)	relative viability (Irinotecan + Pictilisib; first compound 20 µM)	relative viability (RU-SKI 43 + Decitabine; first compound 0.1 µM)	relative viability (RU-SKI 43 + Decitabine; first compound 0.3162 µM)	relative viability (RU-SKI 43 + Decitabine; first compound 1 µM)	relative viability (RU-SKI 43 + Decitabine; first compound 3.162 µM)	relative viability (RU-SKI 43 + Decitabine; first compound 10 µM)	relative viability (MK-8033 + Pictilisib; first compound 0.02 µM)	relative viability (MK-8033 + Pictilisib; first compound 0.06325 µM)	relative viability (MK-8033 + Pictilisib; first compound 0.2 µM)	relative viability (MK-8033 + Pictilisib; first compound 0.6325 µM)	relative viability (MK-8033 + Pictilisib; first compound 2 µM)	relative viability (RU-SKI 43 + Pictilisib; first compound 0.1 µM)	relative viability (RU-SKI 43 + Pictilisib; first compound 0.3162 µM)	relative viability (RU-SKI 43 + Pictilisib; first compound 1 µM)	relative viability (RU-SKI 43 + Pictilisib; first compound 3.162 µM)	relative viability (RU-SKI 43 + Pictilisib; first compound 10 µM)
LOU-NH91	0.517	0.518	0.409	0.35	0.786	0.828	0.809	0.805	0.824	0.531	–	0.498	0.548	0.506	0.504	0.483	0.547	0.485	0.543
NCI-H650	0.798	0.297	0.294	0.307	0.281	0.335	–	0.311	0.312	0.849	0.824	0.871	0.723	0.834	0.947	0.793	0.829	–	0.926
NCI-H2023	0.148	0.204	0.113	0.0527	0.211	0.254	0.22	0.246	0.237	0.264	0.194	0.186	0.219	0.179	0.269	0.213	0.236	0.264	0.212
NCI-H1563	0.59	0.684	0.731	0.3	–	–	–	–	–	0.617	0.63	0.648	0.659	0.705	0.682	0.653	0.689	0.701	0.646
LCLC-103H	0.406	0.51	0.331	0.408	0.728	0.762	0.732	0.764	0.72	0.616	0.589	0.593	0.737	0.638	0.663	0.629	0.712	0.624	0.691
HCC-15	0.186	0.286	0.137	0.167	0.545	0.688	0.732	0.606	0.587	0.829	0.632	0.698	0.767	0.754	0.886	0.887	0.872	0.721	0.679
NCI-H838	0.472	0.403	0.279	0.214	0.416	0.489	0.469	0.429	0.444	0.462	0.447	0.425	0.423	0.394	0.471	0.434	0.544	0.444	0.445
NCI-H2009	0.342	0.515	0.232	0.0786	0.374	0.332	0.364	0.376	0.283	0.833	0.716	0.732	0.775	0.771	0.788	1.06	0.9	0.883	0.773
NCI-H2228	0.408	0.562	0.399	0.395	–	–	–	–	–	0.397	0.599	0.356	0.336	0.357	0.306	0.375	0.42	0.51	0.285
NCI-H522	–	–	–	–	0.682	0.568	0.669	0.768	0.677	–	–	–	–	–	–	–	–	–	–
NCI-H1703	0.236	0.308	0.381	0.221	–	–	–	–	–	0.238	0.244	0.255	0.223	0.248	0.253	0.209	0.263	0.273	0.219
NCI-H1648	–	–	–	–	0.452	0.535	0.466	0.554	0.444	–	–	–	–	–	–	–	–	–	–
NCI-H1299	0.516	0.563	0.256	0.0872	–	–	–	–	–	0.759	0.862	0.748	0.799	0.617	0.823	1.05	0.709	0.789	0.686
IA-LM	0.367	0.234	0.265	0.116	–	–	–	–	–	0.356	0.273	0.293	0.286	0.289	0.353	0.321	0.397	0.385	0.404
SW 900	–	–	–	–	0.422	0.408	0.423	0.428	0.453	–	–	–	–	–	–	–	–	–	–
NCI-H2342	–	–	–	–	0.701	–	0.724	0.797	0.769	–	–	–	–	–	–	–	–	–	–
